According to patent US20260284100A1, “USE OF SULFATED GLUCO-GALACTOOLIGOSACCHARIDE IN PREPARATION OF DRUGS FOR TREATING ATOPIC DERMATITIS” (Nanjing University of Science and Technology, priority 2025, published 2026):

Assays:
IL-8 = experiment: qRT-PCR of IL-8 mRNA in ear and dorsal skin of DNCB-induced AD mice; assay type: in vivo, mouse (female BALB/c); details: dorsal and ear skin tissues; 5 and 20 g/L topical, compared with DNCB group
Procedure: (§1) Female BALB/c mice (6-8 weeks old) provided by the Comparative Medicine Center of Yangzhou University were used in the experiment. All mice were housed under standard feeding conditions with a 12-hour light-dark cycle, and food and water were freely accessible to them. To establish the atopic dermatitis mouse model, the hair on the back of the mice was removed using a shaver and depilatory cream on Day 0 of the experiment. On Day 1 of the experiment, 100 μL of 20 g/L DNCB was applied to the back and 10 μL to the ear of each mouse to induce atopic dermatitis. On Day 5, 8 and 11 of the experiment, 100 μL of 5 g/L DNCB was applied to the back, 10 μL to the ear of each mouse every morning to challenge atopic dermatitis. The mice were euthanized 24 hours after the final challenge. […]
(§2) After all the mice were euthanized, an appropriate amount of ear and dorsal skin tissues was harvested. […] Real-time fluorescent quantitative PCR (qRT-PCR) was performed to specifically detect the expression of IL-1β, IL-4, IL-8 and TSLP.

DNCB-induced AD mice [1] = experiment: Ear and dorsal skin thickness in DNCB-induced AD mice; assay type: in vivo, mouse (female BALB/c); details: for average ear skin thickness: DNCB group 0.44; for average dorsal skin thickness: DNCB group 785
Procedure: (§3) Female BALB/c mice (6-8 weeks old) provided by the Comparative Medicine Center of Yangzhou University were used in the experiment. All mice were housed under standard feeding conditions with a 12-hour light-dark cycle, and food and water were freely accessible to them. To establish the atopic dermatitis mouse model, the hair on the back of the mice was removed using a shaver and depilatory cream on Day 0 of the experiment. On Day 1 of the experiment, 100 μL of 20 g/L DNCB was applied to the back and 10 μL to the ear of each mouse to induce atopic dermatitis. On Day 5, 8 and 11 of the experiment, 100 μL of 5 g/L DNCB was applied to the back, 10 μL to the ear of each mouse every morning to challenge atopic dermatitis. The mice were euthanized 24 hours after the final challenge.
(§4) 5 days after the establishment of the atopic dermatitis model, the mice were randomly divided into 4 groups (6 mice per group): a) normal control group (Ctrl group); b) model group (DNCB group), where 100 μL of normal saline was applied to the back and 10 μL to the ear of each mouse every day; c) low-dose group (DNCB+LSRO group), where 100 μL of 5 g/L aqueous solution of sulfated gluco-galactooligosaccharide was applied to the back of each mouse every day, and 10 μL of 5 g/L aqueous solution of sulfated gluco-galactooligosaccharide was applied to the ear of each mouse every day; and d) high-dose group (DNCB+HSRO group), where 100 μL of 20 g/L aqueous solution of sulfated gluco-galactooligosaccharide was applied to the back of each mouse every day, and 10 μL of 20 g/L aqueous solution of sulfated gluco-galactooligosaccharide was applied to the ear of each mouse every day. The skin condition of the mice was recorded daily.
The ear thickness was accurately measured every day using an electronic caliper. Before the mice were euthanized, the thickness of the dorsal skin was measured with a caliper. Three measurements were taken at different positions on the mid-back, near the neck, and near the tail, and the average value was taken as the final measurement result.

IL-1β = experiment: qRT-PCR of IL-1β mRNA in ear and dorsal skin of DNCB-induced AD mice; assay type: in vivo, mouse (female BALB/c); details: dorsal and ear skin tissues; 5 and 20 g/L topical, compared with DNCB group
Procedure: as §1, §2

DNCB-induced AD mice [2] = experiment: Dorsal skin inflammatory lesions (daily photographs) in DNCB-induced AD mice; assay type: in vivo, mouse (female BALB/c); details: treatment groups (5 and 20 g/L topical) compared with DNCB group
Procedure: as §1
(§5) The skin of the mice was photographed at the same time every day to record the skin condition, and the body weight of the mice was measured.

IgE = experiment: Determination of IgE in serum (ELISA) of DNCB-induced AD mice; assay type: in vivo, mouse (female BALB/c); details: DNCB group 12.65
Procedure: as §1
(§6) Before euthanasia, the mice were anesthetized, and blood samples were collected from the orbit. The blood samples of the mice in each group were analyzed using a fully automatic hematology analyzer. […] The levels of IgE and IL-4 were measured using a double-antibody sandwich enzyme-linked immunosorbent assay, according to the manufacturer's instructions.

TSLP = experiment: qRT-PCR of TSLP mRNA in ear and dorsal skin of DNCB-induced AD mice; assay type: in vivo, mouse (female BALB/c); details: dorsal and ear skin tissues; 5 and 20 g/L topical, compared with DNCB group
Procedure: as §1, §2

[3] = Body weight in DNCB-induced AD mice; assay type: in vivo, mouse (female BALB/c); details: different-dose treatment groups (5 and 20 g/L topical); DNCB group decreased significantly
Procedure: as §1, §5

IL-4 [4] = experiment: qRT-PCR of IL-4 mRNA in ear and dorsal skin of DNCB-induced AD mice; assay type: in vivo, mouse (female BALB/c); details: dorsal and ear skin tissues; 5 and 20 g/L topical, compared with DNCB group
Procedure: as §1, §2

DNCB-induced AD mice [5] = experiment: Skin histology, H&E staining, in DNCB-induced AD mice; assay type: in vivo, mouse (female BALB/c); details: treatment groups (5 and 20 g/L topical) compared with DNCB group
Procedure: as §1

[6] = system: HaCaT cells stimulated by TNF-α/IFN-γ; experiment: mRNA expression of inflammatory cytokines in HaCaT cells stimulated by TNF-α/IFN-γ; assay type: cell-based, human; details: TNF-α/IFN-γ 10 ng/ml 18 h, then 100 or 200 μg/mL for 6 h
Procedure: HaCaT cells were used in the experiment, and their culture was carried out in high-glucose DMEM medium containing 10% fetal bovine serum, 1% streptomycin, and 1% erythromycin. The cells were incubated in a carbon dioxide incubator at 37° C. and passaged using trypsin digestion.
• 1) HaCaT cells were uniformly seeded in 6-well plates at a density of 5×10^5 cells per well. Control group and experimental groups were set up, namely the Ctrl group, TNF-α+IFN-γ group, LSRO+TNF-α+IFN-γ group and HSRO+TNF-α+IFN-γ group. • 2) TNF-α/IFN-γ (10 ng/ml) was added to the TNF-α+IFN-γ, LSRO+TNF-α+IFN-γ and HSRO+TNF-α+IFN-γ groups, respectively, while an equal volume of PBS solution (pH=7.2) was added to the Ctrl group. The plates were shaken crosswise to mix thoroughly, followed by incubation at 37° C. for 18 h in a carbon dioxide incubator. • 3) PBS, PBS, 100 μg/mL and 200 μg/mL sulfated gluco-galactooligosaccharide were added to the Ctrl, TNF-α+IFN-γ, LSRO+TNF-α+IFN-γ and HSRO+TNF-α+IFN-γ groups, respectively. The 6-well plates were placed in a carbon dioxide incubator at 37° C., and the cells were harvested after 6 h of incubation.
HaCaT cells were harvested, followed by RNA extraction and reverse transcription into cDNA. The expression levels of related genes such as IL-4, IL-6 and TNF-α were detected via fluorescent quantitative PCR. […]

[7] = prior studies by the inventors (Carbohydrate Polymers 2025, 347:122782; CN 114533756 A); cited from earlier work
DNCB-induced AD mice [8] = experiment: Scratching behavior test in DNCB-induced AD mice; assay type: in vivo, mouse (female BALB/c); details: DNCB group 107
Procedure: as §1
Prior to the start of the experiment, the mice were allowed to acclimatize to the cages for 1 hour to ensure they could relax and display normal behavioral patterns. During this period, the behavior of the mice scratching the skin of their neck, ears and back with their paws was closely observed and recorded.

[9] = system: mast cells in skin tissues; experiment: Skin histology, toluidine blue (TBO) staining, mast cell number; assay type: in vivo, mouse (female BALB/c); details: dorsal skin, DNCB group 56
Procedure: as §1

IL-4 [10] = experiment: Determination of IL-4 in serum (ELISA) of DNCB-induced AD mice; assay type: in vivo, mouse (female BALB/c); details: DNCB group 253.5
Procedure: as §1, §6

DNCB-induced AD mice [11] = experiment: Weight of spleens and lymph nodes in DNCB-induced AD mice; assay type: in vivo, mouse (female BALB/c); details: for average weight of the lymph nodes: DNCB group 16.4; for average weight of the spleen: DNCB group 221
Procedure: as §3, §4
After the mice were euthanized, the spleens and lymph nodes of the mice in each group were harvested and weighed.

[12] = DNCB+HSRO group, 20 g/L topical daily
[13] = DNCB+LSRO group, 5 g/L topical daily

Substance: sulfated gluco-galactooligosaccharide
- mRNA level of IL-8 (IL-8): significantly decreased in a dose-dependent manner
- average ear skin thickness (DNCB-induced AD mice [1]; [12]): 0.33 mm
- average dorsal skin thickness (DNCB-induced AD mice [1]; [12]): 545 μm
- average ear skin thickness (DNCB-induced AD mice [1]; [13]): 0.375 mm
- average dorsal skin thickness (DNCB-induced AD mice [1]; [13]): 606 μm
- mRNA level of IL-1β (IL-1β): significantly decreased in a dose-dependent manner
- dorsal skin inflammatory lesions (dryness, erythema, erosion, edema) (DNCB-induced AD mice [2]): effectively alleviated these symptoms
- average level of IgE in serum (IgE; [12]): 10.01 µg/mL
- average level of IgE in serum (IgE; [13]): 10.45 µg/mL
- mRNA level of TSLP (TSLP): significantly decreased in a dose-dependent manner
- DNCB-induced weight loss (body weight) [3]: not obvious
- mRNA level of IL-4 (IL-4 [4]): significantly decreased in a dose-dependent manner
- H&E staining of ear and dorsal skin (epidermal hyperplasia, hyperkeratosis, inflammatory cell infiltration) (DNCB-induced AD mice [5]): maintained the skin structure integrity, alleviated skin lesions and protected skin tissues from damage
- mRNA expression of inflammatory cytokines (IL-4, IL-6, TNF-α) [6]: significantly inhibit the elevation of inflammatory cytokines induced by TNF-α/IFN-γ
- anticoagulant activity [7]: has anticoagulant activity
- average scratching frequency (DNCB-induced AD mice [8]; DNCB+HSRO group, 20 g/L aqueous solution topical daily (100 μL back, 10 μL ear)): 58 times
- average scratching frequency (DNCB-induced AD mice [8]; DNCB+LSRO group, 5 g/L aqueous solution topical daily (100 μL back, 10 μL ear)): 76 times
- average number of mast cells [9, 12]: 26
- average number of mast cells [9, 13]: 32
- average level of IL-4 in serum (IL-4 [10]; [12]): 201 pg/mL
- average level of IL-4 in serum (IL-4 [10]; [13]): 232 pg/mL
- average weight of the lymph nodes (DNCB-induced AD mice [11]; [12]): 9.45 mg
- average weight of the spleen (DNCB-induced AD mice [11]; [12]): 165 mg
- average weight of the lymph nodes (DNCB-induced AD mice [11]; [13]): 10.3 mg
- average weight of the spleen (DNCB-induced AD mice [11]; [13]): 183 mg
